# Assay results from patent US20030176368A1, “Synthesis of epothilones, intermediates thereto and analogues thereof” (priority 2001, published 2003).
# pIC50: −log10 of the molar value. Like-named read-outs stand apart in the source and are kept apart here.
# Tests used:
# CCRF-CEM/Taxol = assay: XTT cytotoxicity assay, taxol-resistant CCRF-CEM/Taxol cells; type: cell-based, human; settings: for activity in CCRF-CEM cell lines resistant to Taxol: Example 12, in words
# Method: (§1) XTT assay following 72 h inhibition. CCRF-CEM is a human T-cell acute lymphoblastic leukemia cell line. The CCRF-CEM/VBL100, CCRF-CEM/VM1, and CCRF-CEM/Taxol cell lines all overexpress P-glycoprotein and display a multidrug resistance phenotype to MDR-associated oncolytics. (Chou et al. Proc. Natl. Acad. Sci. USA 98:8113, 2001; incorporated herein by reference).
# (§2) A typical experiment invovles culturing cells (e.g., CCRF-CEM) at an initial density of 2-5×10^4 cells per ml. They are maintained in a 5% CO2-humidified atmosphere at 37° C. in RPMI medium 1640 (GIBCO/BRL) containing penicillin (100 units/ml), streptomycin (100 μg/ml) (GIBCO/BRL), and 5% heat-inactivated fetal bovine serum. For cells that were grown in suspension (such as CCRF-CEM and its sublines), cytotoxicitiy is measured by using the 2,-3-bis(2-methoxy-4-nitro-5-sulfophenyl)-5 carboxanilide)-2H terazodium hydroxide (XTT)-microculture tetrazonium method in duplicate in 96-well microtiter plates. For both methods, the absorbance of each well is measured with a microplate reader (EL-340, Bio-Tek, Burlington, Vt.). Each run entails six or seven concentrations of the tested drugs. Dose-effect relationship data are analyzed with the median-effect plot.
# CCRF-CEM = assay: XTT cytotoxicity assay, CCRF-CEM cells; type: cell-based, human; settings: for activity in CCRF-CEM cell lines: Example 12, in words; for IC50: Example 6 table, read-out: CCRF-CEM (IC50 (μM))
# Method: as §1, §2
# (§3) The CCRF-CEM human T cells, acute lymphoblastic leukemic cells, its teniposide-resistant subline (CCRF-CEM/VM1) and vinblastine-resistant subline (CCRF-CEM/VBL100) are obtained from W. T. Beck (University of Illinois, Chicago, Ill.).
# CCRF-CEM/VBL100 = assay: XTT cytotoxicity assay, vinblastine-resistant CCRF-CEM/VBL100 cells; type: cell-based, human; settings: for IC50: Example 6 table, read-out: CCRF-CEM/VBL (IC50 (μM))
# Method: as §1, §2, §3
# CCRF-CEM/VM1 = assay: XTT cytotoxicity assay, teniposide-resistant CCRF-CEM/VM1 cells; type: cell-based, human
# Method: as §1, §2, §3
# tubulin = assay: Tubulin binding: formation of microtubules in the presence of the compounds; type: biochemical
# From the text: Indeed, the microtubule stabilizing ability closely parallels the observed cytotoxicity data.
# [1] = XTT assay following 72 h inhibition
# [2] = XTT assay following 72 h inhibition, read-out: In vitro Cytotoxicities (IC50) CCRF-CEM/VBL100
# [3] = XTT assay following 72 h inhibition, read-out: In vitro Cytotoxicities (IC50) CCRF-CEM/VM1
# [4] = XTT assay following 72 h inhibition, read-out: In vitro Cytotoxicities (IC50) CCRF-CEM/Taxol
# [5] = XTT assay following 72 h inhibition, read-out: In vitro Cytotoxicities (IC50) CCRF-CEM
# [6] = Homo sapiens, CCRF-CEM, Example 11 Table 2, XTT assay following 72-h inhibition, read-out: In Vitro Cytotoxicities (IC50) CCRF-CEM/VBL100
# [7] = Homo sapiens, CCRF-CEM, Example 11 Table 2, XTT assay following 72-h inhibition, read-out: In Vitro Cytotoxicities (IC50) CCRF-CEM/VMI
# [8] = Homo sapiens, CCRF-CEM, Example 11 Table 2, XTT assay following 72-h inhibition, read-out: In Vitro Cytotoxicities (IC50) CCRF-CEM/TAXOL
# [9] = Homo sapiens, CCRF-CEM, Example 11 Table 2, XTT assay following 72-h inhibition, read-out: In Vitro Cytotoxicities (IC50) CCRF-CEM
# [10] = Homo sapiens, CCRF-CEM, Example 5 Table 1, 72 h inhibition, read-out: In vitro Cytotoxicities (IC50) C/VBL100
# [11] = Homo sapiens, CCRF-CEM, Example 5 Table 1, 72 h inhibition, read-out: In vitro Cytotoxicities (IC50) C/VM1
# [12] = Homo sapiens, CCRF-CEM, Example 5 Table 1, 72 h inhibition, read-out: In vitro Cytotoxicities (IC50) C/Taxol
# [13] = Microtubules formed in the presence of dEpoB is defined as 100%
# [14] = Homo sapiens, CCRF-CEM, Example 5 Table 1, 72 h inhibition, read-out: In vitro Cytotoxicities (IC50) CCRF-CEM(C)
compound,measurement,setting,value
"C/C1=C/C[C@@H](/C(C)=C/c2csc(C)n2)OC(=O)C[C@H](O)C(C)(C)C(=O)[C@H](C)[C@@H](O)[C@@H](C)CC2OC(C)(C)OC12 (stereo partly shown) [10, 11-ketal-dEpoB]",activity in CCRF-CEM cell lines resistant to Taxol,CCRF-CEM/Taxol,demonstrated activity
same,activity in CCRF-CEM cell lines,CCRF-CEM,demonstrated activity
CC1=C/C[C@@H](/C(C)=C/c2coc(C)n2)OC(=O)C[C@H](O)C(C)(C)C(=O)[C@H](C)[C@@H](O)[C@@H](C)C\C=C\1 [19-oxa epothilone 490],pIC50,"CCRF-CEM/VBL100; Homo sapiens, CCRF-CEM, Example 9 table, read-out: Cell Growth Inhibition (IC50) CCRF-CEM/VBL",7.22
same,pIC50,"CCRF-CEM/Taxol; Homo sapiens, CCRF-CEM, Example 9 table, read-out: Cell Growth Inhibition (IC50) CCRF-CEM/taxol",7.40
same,pIC50,"CCRF-CEM; Homo sapiens, CCRF-CEM, Example 9 table, read-out: Cell Growth Inhibition (IC50) CCRF-CEM",7.82
"10,11-dehydro-12,13-desoxyepothilone B [Epo490]",IC50,CCRF-CEM/VBL100; [1],0.068 µM
same,pIC50,CCRF-CEM/VBL100; [2],7.04
same,pIC50,CCRF-CEM/VM1; [3],7.46
same,pIC50,CCRF-CEM/Taxol; [4],7.49
same,IC50,CCRF-CEM; [1],0.02 µM
same,pIC50,CCRF-CEM; [5],7.60
"10,11-dehydro-14,15-[18]desoxyepothilone B [[18]ddEpoB]",% Tubulin Binding,tubulin; Example 5 Table 1,51%
"CC[C@]1(O)C[C@@H]2CN(CCc3c([nH]c4ccccc34)[C@@](C(=O)OC)(c3cc4c(cc3OC)N(C)[C@H]3[C@@](O)(C(=O)OC)[C@H](OC(C)=O)[C@]5(CC)C=CCN6CC[C@]43[C@@H]65)C2)C1 [vinblastine, reference compound]",pIC50,CCRF-CEM/VBL100; [6],6.91
same,pIC50,CCRF-CEM/VM1; [7],8.85
same,pIC50,CCRF-CEM/Taxol; [8],7.74
same,pIC50,CCRF-CEM; [9],9.10
"CC(=O)O[C@H]1C(=O)[C@@]2(C)[C@H]([C@H](OC(=O)c3ccccc3)[C@]3(O)C[C@H](OC(=O)[C@H](O)[C@@H](NC(=O)c4ccccc4)c4ccccc4)C(C)=C1C3(C)C)[C@]1(OC(C)=O)CO[C@@H]1C[C@@H]2O [Taxol, paclitaxel, reference compound]",pIC50,CCRF-CEM/VBL100; [6],6.08
same,pIC50,CCRF-CEM/VM1; [7],8.52
same,pIC50,CCRF-CEM/Taxol; [8],7.09
same,pIC50,CCRF-CEM; [9],8.68
"CC1=CCC(C(C)=Cc2csc(C)n2)OC(=O)CC(O)C(C)(C)C(=O)C(C)C(O)C(C)CC=CC1 (stereo not shown) [[17]ddEpoB, 10,11-dehydro-13,14-[17]desoxyepothilone B]",IC50,CCRF-CEM/VBL100; [1],0.126 µM
same,pIC50,"CCRF-CEM/VBL100; Example 12, growth inhibition, read-out: activity, CCRF-CEM/VBL100 resistant cell lines",~6.86
same,pIC50,CCRF-CEM/VBL100; [2],6.90
same,pIC50,"CCRF-CEM/VM1; Example 12, growth inhibition, read-out: activity, CCRF-CEM/VM1 resistant cell lines",~7.26
same,pIC50,CCRF-CEM/VM1; [3],7.26
same,pIC50,"CCRF-CEM/Taxol; Example 12, growth inhibition, read-out: activity, CCRF-CEM/Taxol resistant cell lines",~7.31
same,pIC50,CCRF-CEM/Taxol; [4],7.28
same,% Tubulin Binding,tubulin; Example 5 Table 1,94%
same,IC50,CCRF-CEM; [1],0.04 µM
same,pIC50,"CCRF-CEM; Example 12, growth inhibition, read-out: activity, CCRF-CEM tumor cell lines",~7.29
same,pIC50,CCRF-CEM; [5],7.40
CC1=C/C[C@@H](/C(C)=C/c2csc(CO)n2)OC(=O)C[C@H](O)C(C)(C)C(=O)[C@H](C)[C@@H](O)[C@@H](C)C\C=C\1 [Compound 21-OH-Epo490],pIC50,CCRF-CEM/VBL100; [10],6.69
same,pIC50,CCRF-CEM/VBL100; [6],6.69
same,pIC50,CCRF-CEM/VM1; [11],7.21
same,pIC50,CCRF-CEM/VM1; [7],7.21
same,activity in CCRF-CEM cell lines resistant to Taxol,CCRF-CEM/Taxol,demonstrated activity
same,pIC50,CCRF-CEM/Taxol; [12],7.29
same,pIC50,CCRF-CEM/Taxol; [8],7.29
same,% Tubulin Binding,tubulin; Example 5 Table 1,77%
same,% Tubulin Binding,tubulin; [13],77%
same,activity in CCRF-CEM cell lines,CCRF-CEM,demonstrated activity
same,pIC50,CCRF-CEM; [14],7.52
same,pIC50,CCRF-CEM; [9],7.52
C/C1=C/C[C@@H](/C(C)=C/c2csc(C)n2)OC(=O)C[C@H](O)C(C)(C)C(=O)[C@H](C)[C@@H](O)[C@@H](C)CC2CC12 (stereo partly shown) [15 (cyclopropyl)],pIC50,CCRF-CEM/VBL100; [10],6.85
same,% Tubulin Binding,tubulin; Example 5 Table 1,84%
same,pIC50,CCRF-CEM; [14],7.11
C/C1=C/C[C@@H](/C(C)=C/c2csc(C)n2)OC(=O)C[C@H](O)C(C)(C)C(=O)[C@H](C)[C@@H](O)[C@@H](C)C[C@@H](O)[C@@H]1O [12 (dihydroxy)],pIC50,CCRF-CEM/VBL100; [10],4.00
same,pIC50,CCRF-CEM/VM1; [11],5.63
same,pIC50,CCRF-CEM/Taxol; [12],4.78
same,% Tubulin Binding,tubulin; Example 5 Table 1,31%
same,pIC50,CCRF-CEM; [14],6.00
C/C(=C\c1csc(C)n1)[C@@H]1C/C=C(/CF)CCC[C@H](C)[C@H](O)[C@@H](C)C(=O)C(C)(C)[C@@H](O)CC(=O)O1 [Compound 26F-EpoD],activity in CCRF-CEM cell lines resistant to Taxol,CCRF-CEM/Taxol,demonstrated activity
same,pIC50,"CCRF-CEM/Taxol; Example 12, read-out: activity for CCRF-CEM/Taxol resistant cell lines",~7.96
same,activity in CCRF-CEM cell lines,CCRF-CEM,demonstrated activity
same,pIC50,"CCRF-CEM; Example 12, read-out: activity for CCRF-CEM cell lines",~8.82
C/C1=C\[C@@H]2C[C@H](C)[C@H](O2)[C@@H](C)C(=O)C(C)(C)[C@@H](O)CC(=O)O[C@H](/C(C)=C/c2csc(C)n2)CC1O (stereo partly shown) [13 (THF macrocycle)],pIC50,CCRF-CEM/VBL100; [10],5.06
same,pIC50,CCRF-CEM/Taxol; [12],5.37
same,% Tubulin Binding,tubulin; Example 5 Table 1,inactive
same,pIC50,CCRF-CEM; [14],6.12
"C/C1=C/C[C@@H](/C(C)=C/c2csc(C)n2)OC(=O)C[C@H](O)C(C)(C)C(=O)[C@H](C)[C@@H](O)[C@@H](C)CCC1 [dEpoB, 12,13-desoxyepothilone B, reference compound]",pIC50,"CCRF-CEM/VBL100; Homo sapiens, CCRF-CEM, 72 h, read-out: In Vitro Cytotoxicities (IC50) CCRF-CEM/VBL100",7.82
same,pIC50,"CCRF-CEM/VBL100; Homo sapiens, CCRF-CEM, 72 h, read-out: In vitro Cytotoxicities (IC50) C/VBL100",7.82
same,pIC50,"CCRF-CEM/VBL100; Homo sapiens, CCRF-CEM, 72 h, read-out: In vitro Cytotoxicities (IC50) CCRF-CEM/VBL100",7.82
same,pIC50,"CCRF-CEM/VM1; Homo sapiens, CCRF-CEM, 72 h, read-out: In Vitro Cytotoxicities (IC50) CCRF-CEM/VMI",7.80
same,pIC50,"CCRF-CEM/VM1; Homo sapiens, CCRF-CEM, 72 h, read-out: In vitro Cytotoxicities (IC50) C/VM1",7.80
same,pIC50,"CCRF-CEM/VM1; Homo sapiens, CCRF-CEM, 72 h, read-out: In vitro Cytotoxicities (IC50) CCRF-CEM/VM1",7.80
same,pIC50,"CCRF-CEM/Taxol; Homo sapiens, CCRF-CEM, 72 h, read-out: In Vitro Cytotoxicities (IC50) CCRF-CEM/TAXOL",8.15
same,pIC50,"CCRF-CEM/Taxol; Homo sapiens, CCRF-CEM, 72 h, read-out: In vitro Cytotoxicities (IC50) C/Taxol",8.15
same,pIC50,"CCRF-CEM/Taxol; Homo sapiens, CCRF-CEM, 72 h, read-out: In vitro Cytotoxicities (IC50) CCRF-CEM/Taxol",8.15
same,% Tubulin Binding,tubulin; Example 5 Table 1,100%
same,% Tubulin Binding,tubulin; [13],100%
same,pIC50,"CCRF-CEM; Homo sapiens, CCRF-CEM, 72 h, read-out: In Vitro Cytotoxicities (IC50) CCRF-CEM",7.96
same,pIC50,"CCRF-CEM; Homo sapiens, CCRF-CEM, 72 h, read-out: In vitro Cytotoxicities (IC50) CCRF-CEM",7.96
same,pIC50,"CCRF-CEM; Homo sapiens, CCRF-CEM, 72 h, read-out: In vitro Cytotoxicities (IC50) CCRF-CEM(C)",7.96
